Data: the NIST ThermoML archive (doi:10.1016/j.tca.2015.11.010)
± gives the expanded uncertainty stated by the source.

Assay: activity coefficient (dimensionless); of the first substance listed, at infinite dilution; xn = mol fraction of the nth substance listed
Conditions: 298.15 K; 238 kPa; Liquid; Chromatography; x1 = 0

| Structure (SMILES) | activity coefficient |
| --- | --- |
| Cc1ccccc1C [1,2-dimethylbenzene] + CNC=O | 9.8 ± 1.1 |
| Cc1cccc(C)c1 [1,3-dimethylbenzene] + CNC=O | 10.8 ± 0.7 |
| Cc1ccc(C)cc1 [1,4-dimethylbenzene] + CNC=O | 10.4 ± 0.9 |
| C=CCCCCC=C [1,7-octadiene] + CNC=O | 23 ± 2.1 |
| Cc1ccc(C(C)C)cc1 [1-(1-methylethyl)-4-methylbenzene] + CNC=O | 22.3 ± 2.1 |
| C=CC1CC=CCC1 (centres undefined) [4-ethenylcyclohexene] + CNC=O | 16.6 ± 1.9 |
| c1ccccc1 [benzene] + CNC=O | 4.8 ± 0.4 |
| Brc1ccccc1 [bromobenzene] + CNC=O | 6.3 ± 0.5 |
| Clc1ccccc1 [chlorobenzene] + CNC=O | 5.2 ± 0.6 |
| C1CCCCCCC1 [cyclooctane] + CNC=O | 42.3 ± 3.3 |
| CCCCCCCCCC [decane] + CNC=O | 194 ± 9.1 |
| Fc1ccccc1 [fluorobenzene] + CNC=O | 4 ± 0.3 |
| CCCCCCC [heptane] + CNC=O | 60.5 ± 4.8 |
| CCCCCC [hexane] + CNC=O | 38.6 ± 7.5 |
| c1ccc2ccccc2c1 [naphthalene] + CNC=O | 26.7 ± 3.7 |
| CCCCCCCCC [nonane] + CNC=O | 122 ± 6.3 |
| CCCCCCCC [octane] + CNC=O | 83.9 ± 4.5 |
| Cc1ccccc1 [toluene] + CNC=O | 7 ± 0.6 |
| CCCCCCCCCCC [undecane] + CNC=O | 318 ± 32 |
